Source: patent publication EP0112419A1, “Pharmacologically active naphthotriazole derivatives” (BEECHAM GROUP PLC, priority 1982, dated 1984)

Tested on: rat passive peritoneal anaphylaxis
Assay: Rat passive peritoneal anaphylaxis (PPA)
Assay type: in vivo
Settings: for Concentration in peritoneal fluid as % of mean of controls (Mean ± SEM, 5-7 rats per group) Dye: Pontamine Sky Blue, OD at 625 nm; for Concentration in peritoneal fluid as % of mean of controls (Mean ± SEM, 5-7 rats per group) Histamine: fluid collected 5 min after challenge
Source text: • a) inhibit rat passive peritoneal anaphylaxis; and • b) antagonise the spasmogenic effects of slow reacting substance of anaphylaxis, SRS-A, on isolated guinea pig ileum.
Charles River Sprague Dawley male rats of 250 - 300 g. and Dunkin Hartley male white guinea pigs of 250 - 300 g. were used. v
The method has been described previously. (Ross, Janet W., Smith, H. and Spicer, Barbara A. Increased vascular permeability during passive peritoneal anaphylaxis in the rat. Int. Arch. Allergy appl. Immun., 51, 226, 1976).
Rats were sensitised by giving an intraperitoneal injection of 0.5 ml of Bordetella pertussis vaccine (4 x 10^10 organisms/ml Burroughs Wellcome, London) and a subcutaneous injection of 0.5 ml of an emulsion of 100 mg of ovalbumin (chicken egg albumin, crystallised and lyophilised, grade 3, Sigma, London) in 2 ml of isotonic saline and 3 ml of Freund's incomplete adjuvant (Difco Laboratories, Michigan, USA) .
The rats were bled by cardiac puncture, on day 18, the blood was pooled, and the serum separated, stored at -20°C and thawed only once before use.
Rats were each given an intraperitoneal injection of 2 ml of a 1:5 dilution of the rat anti-serum in isotonic saline. Two hours later 0.3 ml of a 5% solution of Pontamine Sky Blue (Raymond A. Lamb, London) in isotonic saline was injected intravenously, followed by an intraperitoneal injection of the test compound in 1 ml of saline; (control rats received 1 ml of saline); followed 30 seconds later by an intraperitoneal injection of 5 ml of Tyrode's solution containing […]/ml heparin and 0.4 mg/ml of ovalbumin. The concentrations of the compounds were quoted as those in the 6 ml of fluid injected intraperitoneally. Exactly five minutes after challenge the rats were stunned and bled and their peritoneal fluids were collected by,opening their peritoneal cavities over funnels into polycarbonate tubes in ice. The supernatants were separated from the cellular residue by centrifuging at 150 g. for five minutes and were retained for assay of dye and histamine. Any samples obviously contaminated with blood were not used for estimation of dye. Groups of at least five rats were used for each dose of compound and the treatments were randomised.
Dye was assayed within two hours by measurement of optical density (OD) at 625 nm.
For histamine assay 0.5 ml samples of the supernatants were added to 1 ml volumes of 12% trichloracetic acid and stored at -20°C. The deproteinised samples were assayed using an automated spectrofluorimetric system (Technicon Autoanalyser) by a method similar to that of Evans, D.P., Lewis, J.A. and Thomson, D.S.: (An automated fluorimetric assay for the rapid determination of histamine in biological fluids. Life Sci., 12, 327, 1973).

[1] = conc. injected i.p. 2 x 10^-5 M
[2] = conc. injected i.p. 2 x 10^-6 M
[3] = conc. injected i.p. 2 x 10^-7 M
[4] = conc. injected i.p. 2 x 10^-8 M

SMILES | Concentration in peritoneal fluid as % of mean of controls (Mean ± SEM, 5-7 rats per group) Dye [1] [%] | Concentration in peritoneal fluid as % of mean of controls (Mean ± SEM, 5-7 rats per group) Histamine [1] [%] | Concentration in peritoneal fluid as % of mean of controls (Mean ± SEM, 5-7 rats per group) Dye [2] [%] | Concentration in peritoneal fluid as % of mean of controls (Mean ± SEM, 5-7 rats per group) Histamine [2] [%] | Concentration in peritoneal fluid as % of mean of controls (Mean ± SEM, 5-7 rats per group) Dye [3] [%] | Concentration in peritoneal fluid as % of mean of controls (Mean ± SEM, 5-7 rats per group) Histamine [3] [%] | Concentration in peritoneal fluid as % of mean of controls (Mean ± SEM, 5-7 rats per group) Dye [4] [%] | Concentration in peritoneal fluid as % of mean of controls (Mean ± SEM, 5-7 rats per group) Histamine [4] [%]
CCCc1c(OCCCOc2ccc3c(c2)C(=O)c2nn[nH]c2C3=O)ccc(C(C)=O)c1O [Example 1 and 2, 6-[3-(4-Acetyl-3-hydroxy-2-n-propylphenoxy)propoxy]-4,9-dihydro-4,9-dioxo-1H-naphtho[2,3-d]-v-triazole] | 32 ± 5 | 10 ± 1 | 58 ± 8 | 27 ± 8 | 63 ± 5 | 57 ± 11 |  | 
CCCc1c(OCCCOc2cccc3c2C(=O)c2nn[nH]c2C3=O)ccc(C(C)=O)c1O [Example 3, 5-[3-(4-Acetyl-3-hydroxy-2-n-propylphenoxy)-pro^poxy]-4,9-dihydro-4,9-dioxo-1H-naphtho[2,3-d]-v-triazole] | 57 ± 4 | 25 ± 3 | 94 ± 8 | 62 ± 11 |  |  |  | 
CCCc1c(OCC(O)COc2ccc3c(c2)C(=O)c2nn[nH]c2C3=O)ccc(C(C)=O)c1O (centres unmarked) [Example 4, 6-[3-(4-Acetyl-3-hydroxy-2-n-propylphenoxy)-2-hydroxy-pronoxy]-4,9-dihydro-4,9-dioxo-1H-naphtho[2,3-d]-v-triazole] |  |  |  |  | 58 ± 4 | 38 ± 4 | 72 ± 11 | 64 ± 11
